Assay [1] concerns mice subjected to the formalin test. Nature of the assay: Formalin test (inflammatory pain model), pain behavior in mice. The assay is classed as in vivo, mouse. On the procedure:
The formalin test, which is an inflammatory pain model and is commonly used as a neuropathic pain model in a broad sense, was used to evaluate the pain-inhibiting effect of disulfiram (DSF).
In the formalin test, each mouse was placed in a transparent container for 30 minutes for acclimation to the analysis environment. Thereafter, a test drug or a solvent control (a solution of 10% DMSO and 2% Tween-80) was administered intraperitoneally to each mouse, and 30 minutes later, 20 μL of 1% formalin was injected subcutaneously from the palmar surface of the right hind paw to observe pain behavior in each mouse. The duration (sec.) of paw lifting and paw licking was used as a measured value of intensity of pain.
The formalin test is one of the commonly used models that are used as pain models to evaluate analgesic effects. A biphasic pain-like behavior is observed in the formalin test; the first response appears within 5 minutes and disappears till 10 minutes after the administration of formalin, and the second response is a response that reappears within 10 to 15 minutes after the administration of formalin (FIG. 1A).
DSF is metabolized in the body to generate diethyldithiocarbamate (DDC). The analgesic effects of metal complexes of DDC, which are considered to generate DDC in the body as well as DSF, was evaluated by the formalin test. The formalin test was performed in the same manner as in the above-described section 1. except that a copper complex of DDC (Cu(DDC)2) and an iron(III) complex of DDC (Fe(DDC)3) were used as test drugs. Either of the complexes was administered to mice at a dose of 40 mg/kg.

In assay [2] the test system is sciatic nerve ligation (CCI) mouse. Nature of the assay: Sciatic nerve ligation (CCI) model, plantar test of pain threshold for heat. It counts as in vivo. Particulars: 40 mg/kg intraperitoneally, plantar test 30 min after administration; p<0.01 (FIG. 2). From the text:
Since central sensitization was known to be involved in the second phase pain response in the formalin test, DSF was expected to also exert its effects on neuropathic pain. […] Thus, the sciatic nerve ligation (CCI) model, which is commonly used as a neuropathic pain mouse model, was used to evaluate the efficacy of DSF. In the sciatic nerve ligation (CCI) mouse group, a femoral region of each mouse was cut open and the muscle layer was removed to expose the sciatic nerve, and the sciatic nerve was ligated with 6-0 silk sutures at three positions spaced 1 mm apart, and the incision was then closed. In contrast, each mouse in the sham operation (Sham) group was subjected to the same operation till the muscle layer was removed, and the incision was then closed without ligating the exposed sciatic nerve. On one week postsurgery or later, the planter test was performed to evaluate the pain threshold for heat, which was a stimulus not associated with stimulant administration, in those mice. DSF was administered intraperitoneally to mice in the CCI DSF group at a dose of 40 mg/kg. The solvent control (a solution of 10% DMSO and 2% Tween-80) was administered instead of DSF to mice in the CCI control group. The plantar test was performed 30 minutes after administration.

SMILES strings stand for the structures.

In the case of `CCN(CC)C(=S)SSC(=S)N(CC)CC` [DSF, tetraethylthiuram disulfide], the “analgesic effect (suppression of the second response) at 10 mg/kg” value in assay [1] (10 mg/kg intraperitoneally, versus solvent control (FIG. 1C)) is “significant analgesic effects”. Also, the “suppression of the second response (pain score) in the formalin test” value in assay [1] (40 mg/kg intraperitoneally, 30 min before 1% formalin, p<0.001 (FIG. 1B)) is “strongly suppressed”. In addition, the “dose dependency of suppression of the second response relative to solvent control (100%)” value in assay [1] (DSF dose groups, intraperitoneal (FIG. 1C)) is recorded as “analgesic effects in a dose-dependent manner”. Besides, in assay [1] (all drugs at a fixed dose of 40 mg/kg (FIG. 1D)), the “analgesic effect compared with existing analgesics (pregabalin, loxoprofen, aspirin), suppression of the second response” value was “stronger analgesic effects than all of the tested existing analgesics”. Further, the “sedative effect (behavior of treated mice)” value in assay [1] (mice in the formalin test after intraperitoneal administration) is given as “behaved more quietly”. In addition, the “reduction in pain threshold associated with sciatic nerve ligation (CCI)” value in assay [2] is given as “prevented to a significant degree”.
